Structures are written as SMILES. “And” between values parts separate entries of the source, which are not always exact repeats. Equal entries are not always repeated.

The target of one assay is T1, monoamine oxidase-A (Rattus norvegicus, UniProt P21396).
T1 construct: homogenates of rat brain; from tissue; host or cells: rat brain homogenate
T1 sequence (P21396 1-526): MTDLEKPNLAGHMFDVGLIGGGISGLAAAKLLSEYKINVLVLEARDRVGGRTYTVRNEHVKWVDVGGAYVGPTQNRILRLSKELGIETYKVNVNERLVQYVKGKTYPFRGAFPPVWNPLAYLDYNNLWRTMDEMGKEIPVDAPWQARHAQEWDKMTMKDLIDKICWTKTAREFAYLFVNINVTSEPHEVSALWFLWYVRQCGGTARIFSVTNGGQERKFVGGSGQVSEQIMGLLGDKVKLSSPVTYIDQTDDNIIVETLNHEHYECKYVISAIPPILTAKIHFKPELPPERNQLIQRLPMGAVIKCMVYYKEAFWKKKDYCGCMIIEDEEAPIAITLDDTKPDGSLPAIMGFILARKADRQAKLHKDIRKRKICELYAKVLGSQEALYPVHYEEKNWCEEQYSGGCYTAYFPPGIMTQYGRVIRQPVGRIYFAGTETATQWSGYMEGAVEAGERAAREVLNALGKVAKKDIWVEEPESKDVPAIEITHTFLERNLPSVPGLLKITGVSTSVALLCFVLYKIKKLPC
Kind of assay: in vitro monoamine oxidase-A inhibiting activity (radiochemical, 5-hydroxytryptamine substrate). Format: biochemical. Particulars: read-out: % MAO-A Inhibition; for inhibition at 1000 µg/mL: 1.0 mg/ml; for inhibition at 10000 µg/mL: 10 mg/ml. How it is done:
Example 1 is a study of the effects of several extracts of HT1001, PQ4, PQ5, PQ6 and pure ginsenosides, on monoamine oxidase A (MAO A) and monoamine oxidase B (MAO B) activity in vitro.
HT-1001, related extracts and pure ginsenosides were evaluated for in vitro monoamine oxidase-A and monoamine oxidase-B inhibiting activity using the radiochemical procedure of Lyles and Callingham, Biochem. Pharmacol. 31: 1417-1424 (1982), employing either radiolabelled 5-hydroxytryptamine or β-phenylethylamine as substrates for monoamine oxidase-A (MAO-A) or monoamine oxidase-B (MAO-B) respectively. Various concentrations of the compounds of interest were incubated in appropriately diluted homogenates of rat brain in a 0.2 M potassium phosphate buffer. After a 15 minute preincubation period the reaction was initiated by the addition of substrate. Incubations proceded at 37° C. for 10 minutes. Incubation was terminated by the addition of acid and the radiolabelled products (5-hydroxyindoleacetic acid, 5-hydroxyindoleacetaldehyde or phenylacetic acid, phenylacetaldehyde) were extracted and quantified by liquid scintillation counting procedures. Incubations were done in triplicate and incubations including pheneizine a known MAO inhibitor were included as controls and for comparison. The percent inhibition of monoamine oxidase-A or monoamine oxidase-B activity compared to controls containing no experimental material was calculated.

In assay [1] the test system is choline uptake into synaptosomes, whole brain. Conditions: Benishin 1992 / previously demonstrated; cited from earlier work.
The subject of the next assay is PC12 cells. As to the kind of experiment: neurite outgrowth in PC12 cells. Type of assay: cell-based. Particulars: seven days after treatment. As to the method: A study of the neurotrophic effects of HT1001 and some pure ginsenosides was conducted. A new mechanism of action for HT1001 was shown, which is the stimulation of neurite outgrowth in a PC12 cell line. […] The beneficial effects (prevention/treatment) of HT-1001 may apply to degenerative diseases such as senile dementia, Parkinson's disease, Alzheimer's disease, multi-infarct dementia, etc. Alzheimer's disease (AD) is associated with degeneration of cholinergic nerve tracts including projections from the basal forebrain to the cortex and hippocampus. The PC12 (pheochromocytoma) cell line is one of the models for the study of the development of these nerve tracts. The cell line is phenotypically a chromaffin cell line, but can be induced to express adrenergic and cholinergic markers as well. This model has the advantages that (1) it is an immortalized cell line, (2) it is sensitive to, but not dependent upon, NGF for survival, and (3) it shares many properties in common with the central cholinergic neurons of the basal forebrain. It has been noted that PC12 cells are not sensitive to all of the trophic factors that central cholinergic neurons respond to, whereas central cholinergic neurons respond to all trophic factors that PC12 cells respond to. […] The cellular responses to Nerve Growth Factor (NGF) and samples were determined by counting the number of cells containing processes in PC12 cells. […] The cells and neurites were counted as follows: The cells with circular or global shape and no neurite outgrowth were scored as 0 (S0). […] Cells with more than two small neurites on the cell bodies were scored as S2. Cells with one or two neurites with a length of at least two times diameter as their body were scored as S3. Cells with more than two long neurites were scored as S4. The neurite index was calculated as below: Neurite index (In)=total neurite Score (ΣS)/total cell number (.[…] is the cell number of every cell field. The test samples included: […]

For the next assay, the system named is rats. Conditions: rat, in vivo; cited from earlier work.
The test system of assay [2] is choline uptake into synaptosomes, hippocampus. Kind of assay: choline uptake into synaptosomes from rat hippocampus. Format: biochemical. Particulars: 1 × 10^-6M, n = 10, 1 µM. The source says: We also studied the effects of HT1001 on choline uptake in synaptosomes.
We have examined choline uptake in synaptosome preparations from whole brain and hippocampus in the presence of Rb1, HT1001 and HC3.

A word on the inhibition: it is the relative decrease from the control value, in per cent. With `CC(C)=CCC[C@](C)(O[C@@H]1O[C@H](CO[C@@H]2O[C@H](CO)[C@@H](O)[C@H](O)[C@H]2O)[C@@H](O)[C@H](O)[C@H]1O)[C@H]1CC[C@]2(C)[C@@H]1[C@H](O)C[C@@H]1[C@@]3(C)CC[C@H](O[C@@H]4O[C@H](CO)[C@@H](O)[C@H](O)[C@H]4O[C@@H]4O[C@H](CO)[C@@H](O)[C@H](O)[C@H]4O)C(C)(C)[C@@H]3CC[C@]12C` [Rb1, ginsenoside Rb1], on monoamine oxidase-A, the inhibition at 1000 µg/mL was -6.9% and the inhibition at 10000 µg/mL was found to be 7.1%. In addition, in assay [1], the “choline uptake (literature)” value is given as “increase choline uptake”. Also, the “neurite outgrowth (FIG. 31)” value with PC12 cells is recorded as “significantly increased neurite outgrowth”. Besides, the “learning and memory (literature)” value in the assay with rats is “enhance learning and memory”. For the same compound, the “choline uptake, Rb1” value in assay [2] was 126 % control and 111 % control and 125 % control.

In the case of `CC(C)=CCC[C@](C)(O[C@@H]1O[C@H](CO)[C@@H](O)[C@H](O)[C@H]1O)[C@H]1CC[C@]2(C)[C@@H]1[C@H](O)C[C@@H]1[C@@]3(C)CC[C@H](O)C(C)(C)[C@@H]3[C@@H](O[C@@H]3O[C@H](CO)[C@@H](O)[C@H](O)[C@H]3O)C[C@]12C` [Rg1, ginsenoside Rg1], at monoamine oxidase-A, the inhibition at 1000 µg/mL is -10.8% and the inhibition at 10000 µg/mL stood at 5.1%. In the assay on PC12 cells, the “neurite outgrowth (FIG. 31)” value was “significantly increased neurite outgrowth”.

These data come from patent publication US6083932A, “Pharmaceutical compositions derived from ginseng and methods of treatment using same” (CV Technologies Inc., priority 1998, dated 2000).
